The test has as its system M. tuberculosis H37Rv growth inhibition, 7H9 media. As to the kind of experiment: M. tuberculosis growth inhibition, HTS (AID 449762).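 On all read-outs here: bacterial growth assessed after seven days of incubation.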 Particulars: for IC90: measured here: IC90 growth inhibition.

Each structure is given as a SMILES string. Records with an inconclusive call do not appear. Where a SMILES comes first, the peptide text is derived from it. [ ]: non-standard residue; d: D form. The star is where a group is joined. ξ: configuration not given here. ξF = NC(Cc1ccccc1)C(=O)O; Cbz = O=C(OCc1ccccc1)* A value given as a limit tells only on which side of the number the result lay.

Usually IC50 stands for the concentration that gives 50% inhibition. One may read the IC90 as the concentration needed for an effect of 90%. Low values mean greater potency, high ones weaker potency. For `CCOC(=O)c1sc2nc(C)nc(SC(C)C(=O)N(C)c3ccccc3)c2c1C` (stereo unspecified), the IC50 was 35.1 µM and the IC90 is 46.5 µM.

For the compound `CN(C)C/C=C/C(=O)Nc1cccc(-c2c[nH]c3ncnc(Oc4ccc(NC(=O)CC(=O)Nc5ccc(F)cc5)cc4F)c23)c1`, the IC50 was 7.38 µM and the IC90 was 14.7 µM. The matching figures for `CCOC(=O)CSc1nsc(SCC(=O)OCC)c1C#N`: 11.9 µM and 13.6 µM. Turning to `N#Cc1ccc(CN2CCN(CC(=O)NCCc3ccc(Cl)cc3Cl)CC2)cc1`, the IC50 is 43.1 µM and the IC90 came to 54 µM. For `Cc1cccc(NC(=O)CCSc2nnc(Cc3ccccc3)o2)c1`, the IC50 is 17.1 µM and the IC90 stood at 49.3 µM. For the compound `CC(C)NC(=S)N/N=C/c1cc(Br)ccc1O`, the IC50 was 6.79 µM and the IC90 turned out to be 18.3 µM.

Consider `O=C(CSc1nnc(-c2cccs2)o1)NCC1CN(Cc2ccccc2)CCO1` (stereo unspecified), for which the IC50 is 5.22 µM and the IC90 was 15.2 µM. In the same order, the values of `CCOc1ccc(NC(=O)c2sc3nc(C)nc(N4CCOCC4)c3c2C)cc1` are 35.6 µM and 61.3 µM. Consider `COc1ccccc1/C=N/NC(=O)NC12CC3CC(CC(C3)C1)C2`, for which the IC90 is above 100 µM.

As to `CC(C)C(=O)N1CCC2(CC1)Oc1ccc(Cl)cc1C(=O)C21CC(c2ccccc2)=NO1` (stereo unspecified), the IC50 was 67.8 µM and the IC90 was above 100 µM. Consider `COc1ccc(OCC(=O)Nc2c(C(=O)N(CCN(C)C)Cc3ccco3)oc3ccccc23)cc1`, for which the IC50 was 24.8 µM and the IC90 came to 27.5 µM. In the same order, the values of `COC(=O)c1ccc(-c2ncc(-c3cccc4ccccc34)o2)cc1` are 15.8 µM and 52.7 µM. The matching figures for `Cc1[nH]c2ccc(OC(F)(F)F)cc2c1CCNCc1ccc(Cl)cc1`: 10.9 µM and 19 µM. Turning to `Cc1nn(-c2ccccc2)c2c1C(c1ccc([N+](=O)[O-])cc1)N1C(=N2)C(=O)Nc2ccccc21` (stereo unspecified), the IC50 was 41.4 µM and the IC90 was above 100 µM. On to `O=C(Nc1ccc(Cl)cc1)N(C1=NCCC1)c1ccc(OC(F)F)cc1`, for which the IC50 is 35 µM and the 90% effect concentration (IC90) stood at 70.9 µM. `CC(C)(C)NC(=O)COC(=O)c1cc(Br)ccc1Cl`: the IC50 was 27.8 µM and the IC90 was 65.1 µM. Take `O=C1NN(c2ccc(Br)cc2)C(=O)/C1=C\c1ccc(O)cc1O`: the IC50 was 88.2 µM and the IC90 is above 100 µM.

Consider `Cc1ccc(NC(=O)C2=C(O)CCn3c2nc2ccccc23)cc1`, for which the IC50 is 1.21 µM and the IC90 was determined as 20.6 µM.

Take `Cc1ccc(NC(=O)CCl)cc1S(=O)(=O)N1CCCCCC1`: the IC50 is 2.6 µM and the IC90 turned out to be 5.03 µM. In the same order, the values of `Cc1cc(Cl)ccc1NNC(=O)CCc1ccccc1` are 94.5 µM and above 100 µM.

Turning to `C/C(=C1/C(=O)N(c2ccc([N+](=O)[O-])cc2)N=C1c1ccccc1)N(C)C`, the IC50 is 21.8 µM and the IC90 stood at 31.4 µM. Consider `COc1ccc(N/C=C/C(=O)c2sc(-c3ccccc3)nc2C)cc1`, for which the IC50 was 30.8 µM and the IC90 stood at 55.4 µM. In the case of `Cc1ccnc(Sc2ccc([N+](=O)[O-])cc2[N+](=O)[O-])n1`, the IC50 is 7.7 µM and the IC90 is 15.1 µM.

Consider `Cc1ccc(-c2c[n+](CC(=O)N3c4ccccc4Sc4ccccc43)c3n2CCC3)cc1`, for which the IC50 is 12.9 µM and the IC90 turned out to be 20.2 µM. In the same order, the values of `Cc1nc(NC(=O)c2ccccc2)sc1C1(C)CC(c2ccc(OC(F)(F)F)cc2)=NO1` (stereo unspecified) are 24.6 µM and 41.1 µM. The matching figures for `N#Cc1cccc(NC(=O)N2CCC(c3nc4c(nnn4Cc4cccc(Cl)c4)c(=O)[nH]3)CC2)c1`: 12.4 µM and 13.5 µM. In the case of `Cc1ccc(-n2nnc3c(=O)oc4ccccc4c32)cc1`, the IC50 was below 0.2 µM and the IC90 came out at 19.9 µM. The matching figures for `CC(C)Cn1c(N2CCN(C(=O)/C=C/c3ccccc3)CC2)nc2ccccc21`: 23.7 µM and 27.2 µM. Take `Cc1ccccc1NC(=O)Cc1nc(COC(=O)/C=C/c2ccccc2)cs1`: the IC50 is 40.3 µM and the IC90 amounted to 63 µM.

As for `CC(/C=C/c1ccccc1)=N\NC(N)=S`, the IC50 is 3.84 µM and the 90% effect concentration (IC90) was 9.07 µM. In the same order, the values of `CCc1ccc(C2c3[nH]c4ccccc4c3CCN2C(=O)c2ccc(=O)n(C)n2)cc1` (stereo unspecified) are 49.6 µM and 74.3 µM.

On to `CNc1ncnc2c1ncn2[C@@H]1O[C@H](CO)[C@@H](O)[C@H]1O`, for which the half-maximal inhibitory concentration (IC50) is 2.68 µM and the IC90 came out at 5.73 µM. In the same order, the values of `C(=N\Nc1nc(-c2ccccc2)cs1)/c1ccncc1` are 47.3 µM and 66.4 µM. In the same order, the values of `COc1ccc(OC)c(C(=O)NC(CC(N)=O)c2ccc(NCc3ccc(F)c(F)c3)c([N+](=O)[O-])c2)c1` (stereo unspecified) are 5.38 µM and 23.6 µM. As to `COc1ccc2c(c1)CC/C(=C\C=C\c1ccccc1OC)C2=O`, the IC50 was 7.79 µM and the IC90 was 17.8 µM. In the same order, the values of `NC(=O)c1cccc(-c2cc(Nc3ccc(OC(F)(F)F)cc3)ncn2)c1` are 8.46 µM and 18.4 µM. Regarding `CCOc1ccc2nc(NC(=O)C34CC5CC(CC(NC(C)=O)(C5)C3)C4)sc2c1`, the IC50 is 17.8 µM and the IC90 came to 28.4 µM. The matching figures for `CCOC(=O)CNC(=O)C(Cc1ccccc1)NC(=O)OCc1ccccc1` (stereo unspecified) (Cbz-[ξF]-Gly-OEt): 2.22 µM and 3.36 µM. The matching figures for `CN(C)C(=O)C1C2NC(=S)N(c3ccc(Cl)cc3)C1(C)Oc1ccc(Cl)cc12` (stereo unspecified): 23.6 µM and 26.9 µM. The matching figures for `CCc1ccc(-c2cc(C)no2)cc1S(=O)(=O)NCCCN1CCN(c2ccccc2)CC1`: 34.7 µM and 44.7 µM. As for `COc1ccc(/C=N/Nc2cc(C)nc3ccc(OC)cc23)c(OC)c1`, the IC50 was 9.39 µM and the IC90 worked out at 11.9 µM. The matching figures for `Cc1occc1-c1nnc(SCC(=O)NCCc2ccccc2)o1`: 9.83 µM and 20 µM. The matching figures for `O=C(Nc1ccn(Cc2ccccc2F)n1)c1ccc(COc2ccccc2Cl)cc1`: 11.6 µM and 13.2 µM. As to `CC(C)OC(=O)CSc1nc2ccccc2s1`, the IC50 is 12.4 µM and the IC90 turned out to be 33.6 µM. In the same order, the values of `CCCOc1ccc(N2CC(C(=O)Nc3ccccn3)CC2=O)cc1` (stereo unspecified) are 16.3 µM and 59.1 µM. In the same order, the values of `Cc1nc(-c2nc(-c3c(C(=O)NNC(=O)c4ccc(Cl)cc4)noc3C)cs2)cs1` are 7.57 µM and 18.2 µM. Turning to `Cc1cccc(OCc2n(CC(=O)OC3CC(C)CCC3C(C)C)c3ccccc3[n+]2C)c1` (stereo unspecified), the IC50 was 7.43 µM and the IC90 stood at 9.6 µM.

Take `Cc1ccc(NC(=O)c2sccc2-n2cccc2)c(C)c1`: the IC50 was 28.2 µM and the IC90 worked out at 82.9 µM. As to `Cc1ccccc1NC1=C/C(=N\S(=O)(=O)c2cccs2)c2ccccc2C1=O`, the IC50 is 7.97 µM and the IC90 was 11.8 µM.

Consider `COc1ccc(-c2nc(CN3CCN(c4cc(C)nc(C)c4)CC3)c(C)o2)c2ccccc12`, for which the IC50 was 19.6 µM and the IC90 came out at 25.2 µM. In the same order, the values of `CC1CCC(NC(=O)c2cc3c(s2)CCCC3)CC1` (stereo unspecified) are 40.1 µM and 57.1 µM.

The record behind these values is PubChem BioAssay AID449762 (Southern Research Specialized Biocontainment Screening …, 2010).
